From patent publication US20240417687A1, “THYMIC CELLS AND METHODS OF MAKING” (Thymmune Therapeutics, Inc., priority 2021, published 2024)

Assays:
Type in all cases: cell-based, human
[1] = tested on: iPSCs; assay: Optimizing 3D differentiation of iPSCs to definitive endoderm (Experiments 21, 22, 23)
Description: In this experiment, the effect of adding PI-103 to Experiment 21/22 Medium B was tested. The effect of transitioning to 2D culture at the AFE stage was also tested. Differentiation of iPSCs into DE requires proper timing for introducing small molecules and growth factors. On Day 1-2, Experiment 21/22 Media A comprising DMEM-F12 and factors/small molecules namely Activin A (100 ng/mL), CHIR99021 2 μM, ITS (1:1000), KSR (0.05%), Pen strep (100×), PI-103 (25 nM) and NEAA (100×) was added. On day 3-5, Experiment 21/22 Media B comprising DMEM-F12 and factors/small molecules namely Activin A (100 ng/mL), LDN193189 (200 nM), PI-103 (25 nM), Insulin-Transferrin-Selenium (ITS-G) (1:1000), KSR (0.05%), Pen strep (100×) and NEAA (100×) was added. In Experiment 22, PI-103 (25 nM) was excluded. The effect of transitioning from 3D to 2D culture at VPE stage was tested. The impact of CHIR99021 addition to Experiment 23 Medium B was tested. Differentiation of iPSCs into DE requires proper timing for introducing small molecules and growth factors. On day 1-2, cells were cultured in Experiment 23 Media A comprising DMEM-F12 and small molecules/factors namely Activin A (100 ng/mL), CHIR99021 2 μM, ITS (1:1000), KSR (0.05%), Pen strep (100×), PI-103 (25 nM), and NEAA (100×). On day 3-4, Experiment 23 Media B containing DMEM-F12 and small molecules/factors namely Activin A (100 ng/mL), CHIRR9901 (2 μM), LDN193189 (200 nM), PI-103 (25 nM), Insulin-Transferrin-Selenium (ITS-G) (1:1000), KSR (0.05%), Pen strep (100×), and NEAA (100×). On day 5, Experiment 23 Media B containing DMEM-F12 and small molecules/factors namely Activin A (100 ng/mL), LDN193189 (200 nM), PI-103 (25 nM), Insulin-Transferrin-Selenium (ITS-G) (1:1000), KSR (0.05%), Pen strep (100×), NEAA (100×) was added. Experiment 21 and Experiment 23 described in Example 11 were designed to identify optimal conditions for 3D differentiation to DE. […] Sox17/FoxA2 double positive were higher in Experiment 23, whereas there were more Sox17/FoxA2 negative cells in Experiment 21 and Experiment 22.

[2] = tested on: TEP populations; assay: Oct4 and Nanog expression in TEP populations treated with PluriSIn-1
Description: On days 19-22, cells were cultured in TEC media. On day19, equal amount of freshly made TEC media (500 μl) was replaced gently without disturbing the aggregates. TEC media was prepared to include Basal Media: DMEM-F12, FGF10 (50 ng/ml), IL-22 (20 ng/ml), FGF7/KGF (50 ng/ml), RANKL/TRANCE (50 ng/ml), BMP4 (50 ng/ml), FGF8b (50 ng/ml), CHIRR99 (2 μM), Ascorbic Acid (10 μM), Insulin-Transferrin-Selenium (ITS-G) (1:1000), KSR (0.0025%), Pen strep (1:200), B27 (without VIT A) (1:200), Glutamax (1:100), BME (1:100), N2(1:100), NEAA (1:400), Glutamax (100×), and BME (100×). On day 20, equal amount of freshly prepared TEC media (500 ul) along with Plurisin #1(20 μM) was added (Groups-Untreated and Treated). On day21, equal amount of freshly made TEC media (500 ul) was replaced gently without disturbing the aggregates. On day22, the cells were treated with Accutase and were frozen using Hypothermosol-FRS Media. The cells were split into the following groups for experimentation. Group 37FT1 (8.85M Treated and 9.5M untreated groups) was thawed in 3D and maintained in TEC media (Y27-10 uM on day1) for 6 days. On Day 6, cells were treated with 20 μM Plurisin #1 (24 hours) and were transplanted on day7 into 4 animals. Group 37FT2 (8.85M per plate) was thawed in 3D and maintained in TEC media (Y27-10 uM on day1) for 6 days. […]

[3] = tested on: TEPs; assay: Extended culture of TEPs with TEP medium supplemented with growth factors (Experiments 29, 30); conditions: TEP medium supplemented with FGF7, FGF10 and RANKL together, Experiment 29 and 30
Description: For this differentiation step, VPE cells were cultured in thymic cell media e.g. TEP media or TEC media. On days 13-18, media was replaced for Experiment 29 TEP media containing Basal Media: DMEM-F12, FGF10 (50 ng/ml), BMP4 (50 ng/ml), FGF8b (50 ng/ml), CHIRR99 (2 μM), Ascorbic Acid (10 μM), Insulin-Transferrin-Selenium (ITS-G) (1:1000), KSR (0.0025%), Pen strep (1:200), B27 (without VIT A) (1:200), Glutamax (1:100), BME (1:100), N2(1:100), and NEAA (1:400). On day 13, equal amount of freshly made TEP media (500 ul) was added gently without disturbing the aggregates. On day 14-18, 50% of supernatant was removed and freshly prepared TEP media (500 ul) was added per well. On days 19-22, media was replaced with TEC media containing Basal Media: DMEM-F12, FGF10 (50 ng/ml), FGF7/KGF (50 ng/ml), RANKL/TRANCE (50 ng/ml), BMP4 (50 ng/ml), FGF8b (50 ng/ml), CHIRR99 (2 μM), Ascorbic Acid (10 μM), Insulin-Transferrin-Selenium (ITS-G) (1:1000), KSR (0.0025%), Pen strep (1:200), B27 (without VIT A) (1:200), Glutamax (1:100), BME (1:100), N2(1:100), NEAA (1:400), Glutamax (100×), and BME (100×). On days 20-22, 50% of supernatant was removed and freshly prepared TEC media (500 ul) was added per well. On day 22, Experiment 29B was reseeded as single cells in suspension (3D) and on Geltrex coated plates (2D). Remaining cells were frozen. Frozen Experiment 29B were thawed in suspension and maintained in TEC media.
For this differentiation step, VPE cells were cultured in thymic cell media e.g. TEP media or TEC media. […]
In experiments 16 through 23, the expression of FOXN1 and other markers expression by Day5 of TEP differentiation. […] In Exp 29-TEPs, FOXN1 expression was detected at week 1 of TEP stage. When TEPs were reseeded into 2D culture, no FOXN1 expression was detected after 1 week but FOXN1 was detected by week 2 in culture. In Exp29B-TEP2-3D, where single cell TEP were resuspended into 3D-aggregate culture, FOXN1 expression was detected already by 1 week and became even higher by second week.

[4] = tested on: Spheroids induced to differentiate from iPSC state to TEP; assay: Effect of timing of BMP addition on developmental gene expression in spheroids differentiating from iPSC to TEP; conditions: with or without BMP at early and late TEP stages
Description: Differentiation of DE cells to thymic cells can be promoted by adding factors known to be important for DE to thymic differentiation. An example is BMP which is known to be crucial for the development and maturation of thymic progenitor cells from the third pharyngeal pouch. The impact of the timing of addition of BMP was explored (FIG. 2). Spheroids were induced to differentiate from iPSC state to TEP and timing of addition of BMP was varied. At different stages (DE, AFE, VPE, early and late TEP) spheroids were collected and analyzed for biomarkers related to the different stages. We compared condition with or without BMP at early and late TEP stages.

## Cc1c[nH]c(-c2cnc(NCCNc3ccc(C#N)cn3)nc2-c2ccc(Cl)cc2Cl)n1 [CHIRR99, CHIR99021]
[1]; 2 μM added to Experiment 23 Medium B, day 3-4
  differentiation: enhance differentiation
[1]; Experiment 23 with Wnt activator versus Experiment 21 and 22 without
  differentiation efficiency to DE: increased differentiation efficiency to DE

## Oc1cccc(-c2nc(N3CCOCC3)c3oc4ncccc4c3n2)c1 [PI-103]
[1]; PI-103 (25 nM) added to Experiment 21/22 Medium B, day 3-5, excluded in Experiment 22
  DE differentiation: enhanced DE differentiation

## O=C(NNc1ccccc1)c1ccncc1 [PluriSIn-1]
[2]; one 24-hour pulse before freezing and one 24-hr pulse after thawing, compared to one pulse
  Oct4 and Nanog expression: lower Oct4 and Nanog expression
[2]; one dose alone, different iPSC cell line
  Oct4 and Nanog expression: sufficient to reduce Oct4 and Nanog expression

B1: FGF10: growth factor important for late maturation of TEPs to TECs (protein, UniProt O15520 38-208, looked up)
Fibroblast growth factor 10: QALGQDMVSPEATNSSSSSFSSPSSAGRHVRSYNHLQGDVRWRKLFSFTKYFLKIEKNGKVSGTKKENCPYSILEITSVEIGVVAVKAINSNYYLAMNKKGKLYGSKEFNNDCKLKERIEENGYNTYASFNWQHNGRQMYVALNGKGAPRRGQKTRRKNTSAHFLPMVVHS
[3]
  duration of TEP culture while maintaining the expression of FOXN1: extended beyond 5 days and up to 2 weeks

B2: BMP: growth factor BMP4, crucial for development and maturation of thymic progenitor cells (protein, UniProt P12644 293-408, looked up)
Bone morphogenetic protein 4: SPKHHSQRARKKNKNCRRHSLYVDFSDVGWNDWIVAPPGYQAFYCHGDCPFPLADHLNSTNHAIVQTLVNSVNSSIPKACCVPTELSAISMLYLDEYDKVVLKNYQEMVVEGCGCR
modifications: Bone morphogenetic protein 4
notes: growth factor BMP4, crucial for development and maturation of thymic progenitor cells
[4]
  PAX1 and PAX9 expression: suppressed
  TBX1 and HOXA3 expression: upregulated

B3: FGF7: growth factor important for late maturation of TEPs to TECs (protein, UniProt P21781 32-194, looked up)
Fibroblast growth factor 7: CNDMTPEQMATNVNCSSPERHTRSYDYMEGGDIRVRRLFCRTQWYLRIDKRGKVKGTQEMKNNYNIMEIRTVAVGIVAIKGVESEFYLAMNKEGKLYAKKECNEDCNFKELILENHYNTYASAKWTHNGGEMFVALNQKGIPVRGKKTKKEQKTAHFLPMAIT
[3]
  duration of TEP culture while maintaining the expression of FOXN1: extended beyond 5 days and up to 2 weeks

B4: RANKL: growth factor important for late maturation of TEPs to TECs (protein, UniProt O14788 140-317, looked up)
Tumor necrosis factor ligand …: IRAEKAMVDGSWLDLAKRSKLEAQPFAHLTINATDIPSGSHKVSLSSWYHDRGWAKISNMTFSNGKLIVNQDGFYYLYANICFRHHETSGDLATEYLQLMVYVTKTSIKIPSSHTLMKGGSTKYWSGNSEFHFYSINVGGFFKLRSGEEISIEVSNPSLLDPDQDATYFGAFKVRDID
[3]
  duration of TEP culture while maintaining the expression of FOXN1: extended beyond 5 days and up to 2 weeks
